Results on 3 molecules are retold here after patent US20220315598A1, “Oxygen-containing Heterocyclic Compound, Preparation Method Therefor and Use Thereof” (SHANGHAI YINGLI PHARMACEUTICAL CO., LTD, priority 2019, published 2022).

pIC50: −log10 of the molar value. Where two headings read alike, the source gives them in different places.

In assay [1] the target is T1, CYP2C9 (Homo sapiens, UniProt P11712).
T1 construct: human liver microsomes and CYP enzyme-specific substrates were used; from tissue; host or cells: human liver microsomes
T1 sequence (P11712 whole entry): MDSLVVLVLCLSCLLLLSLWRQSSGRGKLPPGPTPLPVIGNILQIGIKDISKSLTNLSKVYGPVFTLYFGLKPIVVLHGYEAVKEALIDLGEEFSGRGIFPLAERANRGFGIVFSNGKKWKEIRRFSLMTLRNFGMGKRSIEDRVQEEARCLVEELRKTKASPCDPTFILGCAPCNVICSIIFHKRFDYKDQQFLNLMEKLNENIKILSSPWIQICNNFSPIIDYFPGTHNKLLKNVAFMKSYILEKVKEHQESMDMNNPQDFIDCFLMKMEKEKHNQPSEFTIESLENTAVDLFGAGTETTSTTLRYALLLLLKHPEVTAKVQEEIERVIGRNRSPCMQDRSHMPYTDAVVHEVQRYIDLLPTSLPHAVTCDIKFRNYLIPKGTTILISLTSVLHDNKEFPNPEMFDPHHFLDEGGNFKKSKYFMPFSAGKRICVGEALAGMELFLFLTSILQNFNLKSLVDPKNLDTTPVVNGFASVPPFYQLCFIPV
Nature of the assay: Inhibition of metabolic enzymes in vitro, human liver microsomes, CYP2C9. Format: in vitro ADME. As to conditions: substrate Diclofenac. The procedure:
(§1) Test purpose: In this test, human liver microsomes and CYP enzyme-specific substrates were used to test the effects of different concentrations of compounds to be tested on metabolic rates of enzyme-specific substrates, so as to determine inhibitory effects of these compounds on CYP enzymes in human liver microsomes.
(§2) 1. preparing […] potassium phosphate buffer (pH 7.4);
(§3) 2. preparing stock solutions of compounds to be tested (10 mM), NADPH solutions (8 mM, which was 4 times the final concentration), positive compound stock solutions, substrate stock solutions and human liver microsome solutions (see the table below);
(§4) 3. preparing solutions of compounds to be tested: dissolving 8 μL of 10 mM stock solution of compounds to be tested in 12 μL of acetonitrile, and then using a mixed solution of 40% DMSO and 60% acetonitrile to perform a 1:3 gradient dilution as follows (wherein the concentration was 400 times the final concentration): 4 mM, 1.333 mM, 0.444 mM, 0.148 mM, 0.0494 mM, 0.0165 mM, 0.00549 mM and 0 mM.
(§5) 4. preparing positive control inhibitor solutions: dissolving 8 μL of positive control inhibitor stock solutions in 12 μL of acetonitrile, and then using a mixed solution of 40% DMSO and 60% acetonitrile to perform a 1:3 gradient dilution as follows (wherein the concentration was 400 times the final concentration, which was described in the table below); […]
In general terms: Microsomes from liver hold many membrane-bound enzymes, among them those of drug oxidation.

The target in assay [2] is CYP2D6 (Homo sapiens, UniProt P10635). Nature of the assay: Inhibition of metabolic enzymes in vitro, human liver microsomes, CYP2D6. The procedure:
as §1, §2, §3, §4, §5

Assay [3] concerns the target CYP3A4 (Homo sapiens, UniProt P08684). Nature of the assay: Inhibition of metabolic enzymes in vitro, human liver microsomes, CYP3A4. As for the experimental part: as §1, §2, §3
4. preparing positive control inhibitor solutions: dissolving 8 μL of positive control inhibitor stock solutions in 12 μL of acetonitrile, and then using a mixed solution of 40% DMSO and 60% acetonitrile to perform a 1:3 gradient dilution as follows (wherein the concentration was 400 times the final concentration, which was described in the table below);
6. preparing mixed solutions of positive control compounds and human liver microsomes: adding 200 μL of 0.2 mg/mL human liver microsomes to a 96-well plate, and adding 1 μL of diluted solutions of positive control compounds;
7. dispensing 30 μL of mixed solutions of the compounds and human liver microsomes to a 96-well plate, and then adding […] substrate solutions: adding […] preheated NADPH solutions to a preheated reaction plate and mixing evenly to start the reaction;
8. incubating the reaction plate at 37° C.; 3A4 was reacted for 5 minutes; 1A2, 2C9 and 2D6 were reacted for 10 minutes; 2C19 was reacted for 45 minutes;
9, after completion of the addition, adding 120 μL of acetonitrile containing internal standard to terminate the reaction: after terminating the reaction, shaking the sample on a shaker at 600 rpm/min for 10 minutes and centrifuging same at 3220×g for 15 minutes; after centrifugation, taking out 50 μL of supernatant and mixing same with 50 μL of water for analysis by LC-MS/MS.
According to the following equation, the data was plotted and fitted using a dose-response model in GraphPad Prism software to calculate IC50.
Y=Bottom+(Top−Bottom)/(1+10^((Log IC50−X)×HillSlope))
X represents the logarithm concentration of the inhibitor, and Y represents the relative activity of the enzyme at a certain inhibitor concentration (relative to the condition without inhibitor).

Assay [4] has as its target T2, CYP2C19 (Homo sapiens, UniProt P33261).
T2 construct: human liver microsomes and CYP enzyme-specific substrates were used; from tissue; host or cells: human liver microsomes
Nature of the assay: Inhibition of metabolic enzymes in vitro, human liver microsomes, CYP2C19. Format: in vitro ADME. The conditions noted are these: substrate S-Mephenytoin. As for the experimental part:
as §1, §2, §3, §4, §5

The target of assay [5] is T3, CYP1A2 (Homo sapiens, UniProt P05177).
T3 construct: human liver microsomes and CYP enzyme-specific substrates were used; from tissue; host or cells: human liver microsomes
T3 sequence (P05177 1-516): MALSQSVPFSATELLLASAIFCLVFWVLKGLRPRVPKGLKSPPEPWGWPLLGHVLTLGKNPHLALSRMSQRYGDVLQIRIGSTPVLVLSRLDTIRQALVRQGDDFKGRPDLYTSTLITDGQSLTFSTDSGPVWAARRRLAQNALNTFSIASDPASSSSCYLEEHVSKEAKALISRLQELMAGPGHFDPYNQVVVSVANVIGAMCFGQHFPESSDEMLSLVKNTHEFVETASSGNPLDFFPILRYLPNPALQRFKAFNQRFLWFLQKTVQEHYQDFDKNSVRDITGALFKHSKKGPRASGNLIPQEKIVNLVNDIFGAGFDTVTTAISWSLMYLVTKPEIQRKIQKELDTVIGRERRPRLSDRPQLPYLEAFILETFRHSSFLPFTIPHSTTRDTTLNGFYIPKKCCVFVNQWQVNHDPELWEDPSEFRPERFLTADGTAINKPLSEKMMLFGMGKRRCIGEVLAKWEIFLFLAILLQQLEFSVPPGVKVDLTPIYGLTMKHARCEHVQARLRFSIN
Briefly: Inhibition of metabolic enzymes in vitro, human liver microsomes, CYP1A2. Format: in vitro ADME. As to conditions: substrate Phenacetin. The procedure:
as §1, §2, §3, §4, §5

In assay [6] the test system is A375 cells. Briefly: Proliferation inhibition on A375 cell line by CTG method. Format: cell-based. The conditions noted are these: Homo sapiens, A-375; Table 1; CellTiter Glo, 120 hours; class symbol. As for the experimental part:
(§6) NCI-H358 was a human non-small cell lung cancer cell with KRAS G12C mutation; A549 was a human non-small cell lung cancer cell with KRAS G12V mutation: and A375 was a wild-type malignant melanoma cell. The inhibitory effects of compounds on different mutations were evaluated by testing the proliferation inhibitory activity of these compounds on the three cell lines.
(§7) 40 μL of cell suspension to be tested was added to each well (except for peripheral wells) of three 384-well plates (plate 1: NCI-H358 cell suspension: plate 2: A549 cell suspension: plate 3: A375 cell suspension). The plates were placed in a carbon dioxide incubator overnight. […] The plates were incubated in a carbon dioxide incubator for 120 hours. To the 384-well plates were added 25 μL of CellTiter Glo reagents, and the mixture was shaken in the dark for 10 minutes and incubated for 10 minutes. The plates were read on the EnVision plate reader. XLFit was used to draw inhibition rate curves of efficacy and IC50 values were calculated. […] “---” represents not determined.
A general note: Cellular ATP, detected with luciferase, serves as a proxy for viable cell number.

Assay [7] concerns MIA PaCa-2 cells. Nature of the assay: Proliferation inhibition on MIA PaCa-2 cell line by CTG method. Format: cell-based, human. The procedure: Experiments for Testing Proliferation Inhibition of Compounds on MIA PaCa-2 Cell Lines by CTG Method
40 μL of MIA PaCa-2 cell suspension was added to each well (except for peripheral wells) of 384-well plates. The plates were placed in a carbon dioxide incubator overnight. […] The plates were incubated in a carbon dioxide incubator for 120 hours. To the 384-well plates were added 25 μL of CellTiter Glo reagents, and the mixture was shaken in the dark for 10 minutes and incubated for 10 minutes. The plates were read on the EnVision plate reader. XLFit was used to draw inhibition rate curves of efficacy and IC50 values were calculated. […] “---” represents not determined.
MIA PaCa-2 was a human pancreatic cancer cell with KRAS G12C mutation. The activity of compounds can be evaluated by detecting the proliferation inhibitory activity of these compounds on such cell line.

Assay [8] has as its system A549 cells. Nature of the assay: Proliferation inhibition on A549 cell line by CTG method. Type of assay: cell-based, human. The conditions noted are these: Homo sapiens, A549, 120 h, Table 1, CellTiter Glo, class symbol. The procedure:
as §6, §7

Assay [9] deals with NCI-H358 cells. Nature of the assay: Proliferation inhibition on NCI-H358 cell line by CTG method. The conditions noted are these: for IC50: Homo sapiens, NCI-H358, 120 h, CellTiter Glo, 120 hours. Type of assay: cell-based, human. As for the experimental part: as §6, §7
Experiments for Testing Proliferation Inhibition of Compounds on NCI-H358 Cell Lines by CTG Method

The mark [10] stands for this setting: IC50 (μM) CYP3A4 (Midazolam), substrate Midazolam.
Where [11] appears, read: IC50 (μM) CYP3A4 (Testosterone), substrate Testosterone.

Sequence of CYP3A4 (P08684 whole entry): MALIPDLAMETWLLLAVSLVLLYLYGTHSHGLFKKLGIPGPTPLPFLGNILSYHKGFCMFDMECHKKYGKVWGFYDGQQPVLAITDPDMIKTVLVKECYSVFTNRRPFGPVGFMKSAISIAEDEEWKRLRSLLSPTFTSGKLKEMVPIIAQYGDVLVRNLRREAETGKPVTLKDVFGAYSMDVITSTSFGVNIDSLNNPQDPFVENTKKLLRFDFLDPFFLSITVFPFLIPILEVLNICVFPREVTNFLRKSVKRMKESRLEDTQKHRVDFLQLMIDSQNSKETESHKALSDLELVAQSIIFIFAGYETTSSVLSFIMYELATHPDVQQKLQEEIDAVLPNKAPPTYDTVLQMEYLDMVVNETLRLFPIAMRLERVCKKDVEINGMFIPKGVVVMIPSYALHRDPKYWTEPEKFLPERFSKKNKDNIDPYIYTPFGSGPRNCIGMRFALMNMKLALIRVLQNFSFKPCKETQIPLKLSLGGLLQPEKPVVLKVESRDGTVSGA
T2 sequence (P33261 whole entry): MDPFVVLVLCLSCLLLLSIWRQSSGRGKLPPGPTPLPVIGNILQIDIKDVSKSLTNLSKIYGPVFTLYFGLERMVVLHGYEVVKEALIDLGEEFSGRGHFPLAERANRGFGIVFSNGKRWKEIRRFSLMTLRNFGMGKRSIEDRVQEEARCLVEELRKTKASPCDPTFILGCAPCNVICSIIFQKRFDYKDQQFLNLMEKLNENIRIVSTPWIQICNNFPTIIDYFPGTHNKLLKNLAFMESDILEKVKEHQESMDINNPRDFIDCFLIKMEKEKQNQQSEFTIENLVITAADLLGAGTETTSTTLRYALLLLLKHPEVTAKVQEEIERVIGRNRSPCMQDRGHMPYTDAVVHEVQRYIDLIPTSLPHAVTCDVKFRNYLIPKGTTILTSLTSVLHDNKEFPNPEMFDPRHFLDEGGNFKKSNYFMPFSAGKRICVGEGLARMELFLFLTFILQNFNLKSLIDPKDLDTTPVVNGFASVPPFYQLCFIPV
Sequence of CYP2D6 (P10635 whole entry): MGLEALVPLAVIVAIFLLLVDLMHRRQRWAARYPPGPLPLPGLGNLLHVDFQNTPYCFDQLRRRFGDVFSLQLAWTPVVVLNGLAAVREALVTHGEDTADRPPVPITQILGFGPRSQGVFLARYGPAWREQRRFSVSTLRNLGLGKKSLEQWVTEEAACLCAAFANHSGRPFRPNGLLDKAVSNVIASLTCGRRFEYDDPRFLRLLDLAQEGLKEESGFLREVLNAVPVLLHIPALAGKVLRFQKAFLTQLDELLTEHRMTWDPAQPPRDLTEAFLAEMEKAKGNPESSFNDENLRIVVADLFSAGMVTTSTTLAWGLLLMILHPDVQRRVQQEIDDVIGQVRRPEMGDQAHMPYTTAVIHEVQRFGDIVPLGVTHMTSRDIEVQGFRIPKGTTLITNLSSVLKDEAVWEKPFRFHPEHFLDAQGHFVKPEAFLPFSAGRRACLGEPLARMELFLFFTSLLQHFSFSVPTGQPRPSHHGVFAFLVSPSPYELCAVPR

By IC50 is commonly meant the midpoint of a concentration-inhibition curve. For orientation: pIC50 means −log10 of the IC50, conventionally taken in molar units. A high value points to a low IC50. For the molecule `C=C(F)C(=O)N1CCN(c2nc(OC[C@@H]3CCCN3C)nc3c2CCN(c2cccc4cccc(Cl)c24)C3)C[C@@H]1CC#N` [MRTX849], the IC50 was 2.29 µM in assay [1]; 5.92 µM in assay [3] (setting [10]); 7.85 µM in [3] (setting [11]); more than 10 µM in assay [4]; more than 10 µM in assay [5]. For the same molecule, the pIC50 in assay [2] was less than 5.00.

Take `C=CC(=O)N1CCN(c2nc(=O)n(-c3c(C)ccnc3C(C)C)c3nc(-c4c(O)cccc4F)c(F)cc23)[C@@H](C)C1` (atropisomer, axis not shown) [AMG-510]: the IC50 is more than 10 µM in [1]; 4.46 µM in assay [3] (setting [10]); more than 10 µM in assay [3] (setting [11]); more than 10 µM in [4]; more than 10 µM in assay [5]. Further, the pIC50 in assay [2] is less than 5.00.

`C=CC(=O)N1CCN(c2nc(OC[C@@H]3CCCN3C)nc3c2COC(c2ccccc2C(F)(F)F)C3)C[C@@H]1CC#N` (some centres unmarked) [Compound 2-2]: the IC50 is more than 1 µM in assay [6]; 1.9 nM in [7] (Homo sapiens, MIA PaCa-2, Table 2, CellTiter Glo, 120 hours, number); more than 1 µM in [8]; less than 1 µM in [9] (Table 1, class symbol, read-out: IC50 (μM): (H358)); 0.0025 µM in [9] (Table 1, number, read-out: IC50 (μM): (H358)); 0.0025 µM in assay [9] (Table 2, number, read-out: IC50 (nM) H358). For the same molecule, in assay [7] (text on Table 2 (H358 and MIA PaCa-2 cells)), the “proliferation inhibitory activity, comparison in words” value was “significantly better than that of the corresponding comparative compounds 1′ and 3′”. Besides, the “proliferation inhibitory activity on NCI-H358 cells, in words” value in assay [9] (Table 1) was “significantly better than that of the corresponding comparative compound 1′”.
